Data from patent US20100056596A1, “RESISTANCE-REPELLENT RETROVIRAL PROTEASE INHIBITORS” (Sequoia Pharmaceuticals, priority 2004, published 2010).

Legend:
[1] = biological target: T1, wild type HIV-1 protease (Human immunodeficiency virus type 1 group M subtype B, UniProt P04585); test: Ki against wild type (WT) HIV-1 protease; assay type: biochemical; settings: wild type HIV-1 protease
T1 construct: over 45 of the 99 amino acids of the HIV protease monomer

[2] = biological target: HIV-1 protease Mutant 8 (Human immunodeficiency virus type 1, UniProt P04585); test: Ki against HIV-1 protease Mutant 8; assay type: biochemical; settings: HIV-1 protease Mutant 8
[3] = biological target: HIV-1 protease Mutant 9 (Human immunodeficiency virus type 1, UniProt P04585); test: Ki against HIV-1 protease Mutant 9; assay type: biochemical; settings: HIV-1 protease Mutant 9
[4] = test system: HIV-1 isolates, WT; test: In vitro drug sensitivity of HIV-1 laboratory isolates, WT; assay type: cell-based; settings: Human immunodeficiency virus 1; HIV-1 isolate WT
Protocol: (§1) In Vitro Drug Sensitivity of HIV-1 Laboratory Isolates to PIs
(§2) The sensitivities of HIV-1 isolates against compounds of the invention were determined as previously described with minor modifications (Shiraska et al., Proc. Natl. Acad. Sci. USA, 92, 2398-2402 (1995)).

[5] = test system: HIV-1 isolates, Mutant 8; test: In vitro drug sensitivity of HIV-1 laboratory isolates, Mutant 8; assay type: cell-based; settings: Human immunodeficiency virus 1, read-out: IC50 Mutant 8
Protocol: as §1, §2

[6] = test system: HIV-1 isolates, Mutant 9; test: In vitro drug sensitivity of HIV-1 laboratory isolates, Mutant 9; assay type: cell-based; settings: Human immunodeficiency virus 1, read-out: IC50 Mutant 9
Protocol: as §1, §2

CC(C)CN(CC(O)C(Cc1ccccc1)NC(=O)OC1COC2OCCC12)S(=O)(=O)c1ccc2onc(COC(=O)C(C)(C)C)c2c1 (stereo not drawn) [Compound 218]
Ki [1]: < 0.1 nM | Ki [2]: < 0.3 nM | Ki [3]: 2 nM | IC50 [4]: 11 nM | IC50 [5]: 18 nM | IC50 [6]: 80 nM

COCCNCc1noc2ccc(S(=O)(=O)N(CC(C)C)CC(O)C(Cc3ccccc3)NC(=O)OC3COC4OCCC34)cc12 (stereo not drawn) [Compound 219]
Ki [1]: < 0.1 nM | Ki [2]: < 0.3 nM | Ki [3]: 0.37 nM | IC50 [4]: 4 nM | IC50 [5]: 9 nM | IC50 [6]: 40 nM

CC(C)CN(CC(O)C(Cc1ccccc1)NC(=O)OC1COC2OCCC12)S(=O)(=O)c1ccc2onc(CNC(=O)C(C)C)c2c1 (stereo not drawn) [Compound 220]
Ki [1]: < 0.1 nM | Ki [2]: < 0.3 nM | Ki [3]: 0.14 nM | IC50 [4]: 7 nM | IC50 [5]: 12 nM | IC50 [6]: 60 nM

CC(C)CN(CC(O)C(Cc1ccccc1)NC(=O)OC1COC2OCCC12)S(=O)(=O)c1ccc2onc(CNC(=O)c3ccccc3)c2c1 (stereo not drawn) [Compound 221]
Ki [1]: < 0.1 nM | Ki [2]: < 0.3 nM | Ki [3]: < 0.1 nM | IC50 [4]: 7 nM | IC50 [5]: 14 nM | IC50 [6]: 16 nM

CCCOC(=O)NCc1noc2ccc(S(=O)(=O)N(CC(C)C)CC(O)C(Cc3ccccc3)NC(=O)OC3COC4OCCC34)cc12 (stereo not drawn) [Compound 222]
Ki [1]: < 0.1 nM | Ki [2]: < 0.3 nM | Ki [3]: 0.19 nM | IC50 [4]: 3 nM | IC50 [5]: 12 nM | IC50 [6]: 45 nM

CCS(=O)(=O)NCc1noc2ccc(S(=O)(=O)N(CC(C)C)CC(O)C(Cc3ccccc3)NC(=O)OC3COC4OCCC34)cc12 (stereo not drawn) [Compound 223]
Ki [1]: < 0.1 nM | Ki [2]: < 0.3 nM | Ki [3]: 0.26 nM | IC50 [4]: 9 nM | IC50 [5]: 11 nM | IC50 [6]: 60 nM

CC(C)CN(CC(O)C(Cc1ccccc1)NC(=O)OC1COC2OCCC12)S(=O)(=O)c1ccc2onc(CNCCc3ccccn3)c2c1 (stereo not drawn) [Compound 224]
Ki [1]: < 0.1 nM | Ki [2]: < 0.3 nM | Ki [3]: 0.22 nM | IC50 [4]: 15 nM | IC50 [5]: 30 nM | IC50 [6]: 100 nM

CCOC(=O)N(CCOC)Cc1noc2ccc(S(=O)(=O)N(CC(C)C)CC(O)C(Cc3ccccc3)NC(=O)OC3COC4OCCC34)cc12 (stereo not drawn) [Compound 225]
Ki [1]: < 0.1 nM | Ki [2]: < 0.3 nM | Ki [3]: 0.44 nM | IC50 [4]: 3.6 nM | IC50 [5]: 27 nM | IC50 [6]: 80 nM

CCSCCNCc1noc2ccc(S(=O)(=O)N(CC(C)C)CC(O)C(Cc3ccccc3)NC(=O)OC3COC4OCCC34)cc12 (stereo not drawn) [Compound 226]
Ki [1]: < 0.1 nM | Ki [2]: < 0.3 nM | Ki [3]: < 0.1 nM | IC50 [4]: 5.5 nM | IC50 [5]: 16 nM | IC50 [6]: 38 nM

CCS(=O)(=O)N(CCOC)Cc1noc2ccc(S(=O)(=O)N(CC(C)C)CC(O)C(Cc3ccccc3)NC(=O)OC3COC4OCCC34)cc12 (stereo not drawn) [Compound 227]
Ki [1]: < 0.1 nM | Ki [2]: 0.41 nM | Ki [3]: 2.6 nM | IC50 [4]: 3.6 nM | IC50 [5]: 27 nM | IC50 [6]: 80 nM

CC(C)CN(CC(O)C(Cc1ccccc1)NC(=O)OC1COC2OCCC12)S(=O)(=O)c1ccc2onc(CNCC(F)(F)C(F)(F)F)c2c1 (stereo not drawn) [Compound 228]
Ki [1]: 0.12 nM | Ki [2]: < 0.3 nM | Ki [3]: 0.2 nM | IC50 [4]: 4.5 nM | IC50 [5]: 9.5 nM | IC50 [6]: 26 nM

CC(C)CN(CC(O)C(Cc1ccccc1)NC(=O)OC1COC2OCCC12)S(=O)(=O)c1ccc2onc(CNCC(F)(F)F)c2c1 (stereo not drawn) [Compound 229]
Ki [1]: < 0.1 nM | Ki [2]: < 0.3 nM | Ki [3]: 0.46 nM | IC50 [4]: 2.2 nM | IC50 [5]: 3.1 nM | IC50 [6]: 21 nM

CC(C)CN(CC(O)C(Cc1ccccc1)NC(=O)OC1COC2OCCC12)S(=O)(=O)c1ccc2onc(CNCCOc3ccccc3)c2c1 (stereo not drawn) [Compound 230]
Ki [1]: < 0.1 nM | Ki [2]: < 0.3 nM | Ki [3]: 0.14 nM | IC50 [4]: 4.8 nM | IC50 [5]: 20 nM | IC50 [6]: 57 nM

CCCCNCc1noc2ccc(S(=O)(=O)N(CC(C)C)CC(O)C(Cc3ccccc3)NC(=O)OC3COC4OCCC34)cc12 (stereo not drawn) [Compound 231]
Ki [1]: < 0.1 nM | Ki [2]: < 0.3 nM | Ki [3]: 0.29 nM | IC50 [4]: 4.3 nM | IC50 [5]: 23 nM | IC50 [6]: 60 nM

CC(C)CN(CC(O)C(Cc1ccccc1)NC(=O)OC1COC2OCCC12)S(=O)(=O)c1ccc2onc(CNCc3ccccc3)c2c1 (stereo not drawn) [Compound 232]
Ki [1]: < 0.1 nM | Ki [2]: < 0.3 nM | Ki [3]: 0.11 nM | IC50 [4]: 7 nM | IC50 [5]: 55 nM | IC50 [6]: 80 nM
